IC50 data for 20 molecules are collected here from patent publication US10183947B2, “Pyrazole derivatives useful as 5-lipoxygenase activating protein (FLAP) inhibitors” (ASTRAZENECA AB, priority 2015, dated 2019).

Molecules are shown by their SMILES. pIC50: −log10 of the molar value. Read-outs that look alike come from different tables or passages of the source.

Assay [1] deals with FLAP (human ALOX5AP expressed in COS-7 cell membranes) (Homo sapiens (Human), UniProt P20292). The assay is described as follows: FLAP Binding Assay (Test A), competition binding with 3H-MK591 as tracer. The conditions noted are these: competition with 3H-MK591 (2 nM), membranes from COS-7 cells expressing human ALOX5AP, 60 min at rt. On the procedure:
FLAP Binding Assay (Test A) Compounds were tested in a competition binding assay using ^3H-MK591 as tracer. […] Med. Chem. […] A 100,000×g pellet from COS-7 cells stably transfected with a plasmid expressing human ALOX5AP was the source of FLAP. […] Following filtration, filter plates were dried 12 h at RT (or 50° C. for 1 hour). 50 μL scintillant was then added, the filterplates were sealed and radioactivity was measured in a microbeta counter. Specific binding was defined as total binding minus non-specific binding. Total binding was defined as ^3H-MK591 bound to membranes in the absence of competitor, non-specific binding was defined as ^3H-MK591 in the presence of 0.1 mM MK-591. IC50 values were determined by plotting % inhibition versus log compound concentration and using a one site dose response model.

Assay [2] deals with LTB4 production in fresh human whole blood. The assay is described as follows: FLAP Whole Blood Assay (Test B), inhibition of LTB4 production. In kind it is cell-based. Conditions: then calcium ionophore A23187, LTB4 by EIA. On the procedure:
FLAP Whole Blood Assay (Test B)
Compounds were tested for the inhibition of LTB4 production in fresh human whole blood obtained by venapuncture using heparin to prevent clotting. 1.5 μL compounds or DMSO carrier were dispensed into the wells of a 96-well deep-well plate in 3-fold dilution series. 500 μL hepamised whole blood was then added followed by incubation at 37° C. for 30 min (method A) or 4 h (method B). 100 μL blood was subsequently transferred in triplicate to pre-dispensed 0.5 μL 2 mM calcium ionophore (calcimycin; A23187) in a second 96-well plate. Following incubation at 37° C. for 20 min, the assays were stopped by adding 10 μL of stop solution (100 mM EGTA, pH 7.4) and the plate was transferred to ice. The plate was centrifuged at 3000 rpm at 4° C. for 10 min and […] was transferred to a fresh 96 well plate containing 90 μL pre-dispensed EIA assay buffer (0.1 M phosphate buffer+0.1% BSA). LTB4 was then measured using reagents from a commercial EIA (Cayman Chemicals). LTB4 production was defined as the LTB4 level in the presence of a given concentration of test compound minus the LTB4 level in the presence of 50 nM 5-[[4-[(2S,4R)-4-hydroxy-2-methyl-tetrahydropyran-4-yl]-2-thienyl]sulfanyl]-1-methyl-indolin-2-one. (Preparation of 5-[[4-[(2S,4R)-4-hydroxy-2-methyl-tetrahydropyran-4-yl]-2-thienyl]sulfanyl]-1-methyl-indolin-2-one was described in Org. Process Res. Dev., 2005, 9, 555-569 or EP623614 B1). Inhibition of LTB4 production was defined as the LTB4 level in the presence of a given concentration of test compound expressed as a % of the LTB4 level in the presence of DMSO. IC50 values were determined by plotting % inhibition versus log compound concentration and using a one site dose response model.

[3] abbreviates: method B: compound incubated with human whole blood at 37° C. for 4 h, read-out: IC50 nM (method B).
[4] abbreviates: 0.5 h, method A: compound incubated with human whole blood at 37° C. for 30 min, read-out: IC50 nM (method A).

Sequence of FLAP (human ALOX5AP expressed in COS-7 cell membranes) (P20292 whole entry): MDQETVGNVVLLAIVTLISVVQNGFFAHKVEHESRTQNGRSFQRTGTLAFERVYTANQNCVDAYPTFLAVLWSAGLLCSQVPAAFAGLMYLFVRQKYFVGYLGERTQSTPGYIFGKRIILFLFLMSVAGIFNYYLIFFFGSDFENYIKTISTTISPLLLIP

A word on the pIC50: it is −log10 of the IC50, conventionally taken in molar units. A lower pIC50 goes with a high IC50. For orientation: IC50 means the midpoint of a concentration-inhibition curve. Molecule `Cn1ncc(NC(=O)C2CCCCC2C(=O)c2ccc(-c3cc[nH]n3)cc2)c1C#N` (single isomer, unassigned) [Example 18b, (1S,2S or 1R,2R)—N-(5-Cyano-1-methyl-1H-pyrazol-4-yl)-2-[4-(1H-pyrazol-3-yl)benzoyl]cyclohexanecarboxamide] had a pIC50 in assay [1] of 7.55. The IC50 in assay [2] (setting [3]) is 114 nM.

As to `Cn1ncc(NC(=O)C2CCCCC2C(=O)c2ccc(-c3ccn[nH]3)cc2F)c1C(N)=O` (single isomer, unassigned) [Example 34, 4-[({(1R,2R or 1S,2S)-2-[2-Fluoro-4-(1H-pyrazol-5-yl)benzoyl]-cyclohexyl}carbonyl)amino]-1-methyl-1H-pyrazole-5-carboxamide], the pIC50 in assay [1] was 7.39. For the same molecule, the IC50 in assay [2] (setting [3]) was determined as 41 nM.

`Cn1cc(NC(=O)C2CCCCC2C(=O)c2ccc(-c3ccn[nH]3)cc2F)c(C(N)=O)n1` (single isomer, unassigned) [Example 35, 4-[({(1R,2R or 1S,2S)-2-[2-Fluoro-4-(1H-pyrazol-5-yl)benzoyl]-cyclohexyl}carbonyl)amino]-1-methyl-1H-pyrazole-3-carboxamide] had a pIC50 in assay [1] of 7.08. For the same molecule, the IC50 in assay [2] (setting [3]) amounted to 79 nM.

On to `Cc1cc(-c2ccc(C(=O)C3CCCCC3C(=O)Nc3cnn(C)c3C(N)=O)c(F)c2)[nH]n1` (single isomer, unassigned) [Example 37, 4-[({(1R,2R or 1S,2S)-2-[2-Fluoro-4-(3-methyl-1H-pyrazol-5-yl)benzoyl]-cyclohexyl}carbonyl)amino]-1-methyl-1H-pyrazole-5-carboxamide], for which the pIC50 in assay [1] is 7.57. In addition, the IC50 in assay [2] (setting [3]) amounted to 40 nM.

`Cc1cc(-c2ccc(C(=O)C3CCCCC3C(=O)Nc3cn[nH]c3C(N)=O)c(F)c2)[nH]n1` (single isomer, unassigned) [Example 38, 4-[({(1R,2R or 1S,2S)-2-[2-Fluoro-4-(3-methyl-1H-pyrazol-5-yl)benzoyl]cyclohexyl}carbonyl)amino]-1H-pyrazole-5-carboxamide] had a pIC50 in assay [1] of 7.70. In addition, the IC50 in assay [2] (setting [3]) is 69 nM.

Regarding `Cc1cc(-c2ccc(C(=O)C3CCCCC3C(=O)Nc3cnn4c3C(=O)NCC4)c(F)c2)[nH]n1` (single isomer, unassigned) [Example 39, (1R,2R or 1S,2S)-2-[2-Fluoro-4-(3-methyl-1H-pyrazol-5-yl)benzoyl]-N-(4-oxo-4,5,6,7-tetrahydropyrazolo[1,5-a]pyrazin-3-yl)cyclohexanecarboxamide], in assay [1], the negative logarithm of the IC50 (pIC50) is 8.05. Besides, in assay [2] (setting [3]), the IC50 was 34 nM.

With `Cc1cc(-c2ccc(C(=O)C3CCCCC3C(=O)Nc3nonc3C(N)=O)c(F)c2)[nH]n1` (single isomer, unassigned) [Example 40, 4-[({(1R,2R or 1S,2S)-2-[2-Fluoro-4-(3-methyl-1H-pyrazol-5-yl)benzoyl]cyclohexyl}carbonyl)amino]-1,2,5-oxadiazole-3-carboxamide], in assay [1], the pIC50 is 7.15. Moreover, the IC50 in assay [2] (setting [4]) came to 208 nM.

`Cc1onc(NC(=O)C2CCCCC2C(=O)c2ccc(-c3ccn[nH]3)cc2F)c1C(N)=O` (single isomer, unassigned) [Example 41, 3-[({(1R,2R or 1S,2S)-2-[2-Fluoro-4-(1H-pyrazol-5-yl)benzoyl]-cyclohexyl}carbonyl)amino]-5-methyl-1,2-oxazole-4-carboxamide]: the pIC50 in assay [1] was 6.80. Also, in assay [2] (setting [3]), the IC50 came to 272 nM.

Regarding `Cn1ncc(NC(=O)[C@@H]2CCCC[C@H]2C(=O)c2ccc(-c3cc[nH]n3)cc2)c1C(N)=O` [Example 2, 1-Methyl-4-[({(1R,2R)-2-[4-(1H-pyrazol-3-yl)benzoyl]cyclohexyl}-carbonyl)amino]-1H-pyrazole-5-carboxamide], the pIC50 in assay [1] is 7.47. In addition, the IC50 in assay [2] (setting [3]) is 60 nM.

`Cc1cc(-c2ccc(C(=O)[C@@H]3CCCC[C@H]3C(=O)Nc3cn[nH]c3)cc2)[nH]n1` [Example 6, (1R,2R)-2-[4-(3-Methyl-1H-pyrazol-5-yl)benzoyl]-N-(1H-pyrazol-4-yl)cyclohexanecarboxamide] had a pIC50 in assay [1] of 7.24. The IC50 in assay [2] (setting [3]) stood at 380 nM.

In assay [1], `Cc1cc(-c2ccc(C(=O)[C@@H]3CCCC[C@H]3C(=O)Nc3cnn4c3C(=O)NCC4)cc2)[nH]n1` [Example 7, (1R,2R)-2-[4-(3-Methyl-1H-pyrazol-5-yl)benzoyl]-N-(4-oxo-4,5,6,7-tetrahydropyrazolo[1,5-a]pyrazin-3-yl)cyclohexanecarboxamide] gave a pIC50 of 8.20. Besides, the IC50 in assay [2] (setting [3]) worked out at 40 nM.

For `Cn1ncc(NC(=O)[C@@H]2CCCC[C@H]2C(=O)c2ccc(-c3ccn[nH]3)cc2)c1S(C)(=O)=O` [Example 8, (1R,2R)—N-[1-Methyl-5-(methylsulfonyl)-1H-pyrazol-4-yl]-2-[4-(1H-pyrazol-5-yl)benzoyl]cyclohexanecarboxamide], the pIC50 in assay [1] is 7.35. Besides, the IC50 in assay [2] (setting [3]) came out at 35 nM.

As for `Cc1cc(-c2ccc(C(=O)[C@@H]3CCCC[C@H]3C(=O)Nc3cn(C)nc3S(N)(=O)=O)cc2)[nH]n1` [Example 10, (1R,2R)-2-[4-(3-Methyl-1H-pyrazol-5-yl)benzoyl]-N-(1-methyl-3-sulfamoyl-1H-pyrazol-4-yl)cyclohexanecarboxamide], the pIC50 in assay [1] is 6.57. Further, the 50% inhibitory concentration (IC50) in assay [2] (setting [3]) turned out to be 340 nM.

As for `Cc1cc(-c2ccc(C(=O)[C@@H]3CCCC[C@H]3C(=O)Nc3cnn4c3OCC4)cc2)[nH]n1` [Example 11, (1R,2R)—N-(2,3-Dihydropyrazolo[5,1-b][1,3]oxazol-7-yl)-2-[4-(3-methyl-1H-pyrazol-5-yl)benzoyl]cyclohexanecarboxamide], the negative logarithm of the IC50 (pIC50) in assay [1] was 7.09. Also, the IC50 in assay [2] (setting [3]) amounted to 140 nM.

On to `Cc1cc(-c2ccc(C(=O)[C@@H]3CCCC[C@H]3C(=O)Nc3cn[nH]c3C(F)F)cc2)n[nH]1` [Example 15, (1R,2R)—N-[5-(Difluoromethyl)-1H-pyrazol-4-yl]-2-[4-(5-methyl-1H-pyrazol-3-yl)benzoyl]cyclohexanecarboxamide], for which, in assay [1], the negative logarithm of the IC50 (pIC50) was 8.07. The IC50 in assay [2] (setting [3]) amounted to 28 nM.

In the case of `Cc1cc(-c2ccc(C(=O)[C@@H]3CCCC[C@H]3C(=O)Nc3cnn4c3C(=O)N(C)CC4)cc2)n[nH]1` [Example 16, (1R,2R)—N-(5-Methyl-4-oxo-4,5,6,7-tetrahydropyrazolo[1,5-a]pyrazin-3-yl)-2-[4-(5-methyl-1H-pyrazol-3-yl)benzoyl]cyclohexanecarboxamide], the pIC50 in assay [1] is 7.66. Also, in assay [2] (setting [3]), the IC50 stood at 41 nM.

As to `CN1CCn2ncc(NC(=O)[C@@H]3CCCC[C@H]3C(=O)c3ccc(-c4cc[nH]n4)cc3)c2C1=O` [Example 17, (1R,2R)—N-(5-Methyl-4-oxo-4,5,6,7-tetrahydropyrazolo[1,5-a]pyrazin-3-yl)-2-[4-(1H-pyrazol-3-yl)benzoyl]cyclohexanecarboxamide], in assay [1], the pIC50 was 7.70. Further, the IC50 in assay [2] (setting [3]) was 18 nM.

Turning to `CCn1ncc(NC(=O)[C@@H]2CCCC[C@H]2C(=O)c2ccc(-c3cc(C)n[nH]3)cc2)c1C(N)=O` [Example 19, 1-Ethyl-4-[({(1R,2R)-2-[4-(3-methyl-1H-pyrazol-5-yl)benzoyl]-cyclohexyl}carbonyl)amino]-1H-pyrazole-5-carboxamide], the pIC50 in assay [1] was 7.54. The IC50 in assay [2] (setting [3]) was determined as 80 nM.

In assay [1], `CNC(=O)c1c(NC(=O)[C@@H]2CCCC[C@H]2C(=O)c2ccc(-c3cc(C)[nH]n3)cc2)cnn1C` [Example 21, N,1-Dimethyl-4-[({(1R,2R)-2-[4-(5-methyl-1H-pyrazol-3-yl)benzoyl]-cyclohexyl}carbonyl)amino]-1H-pyrazole-5-carboxamide] showed a pIC50 of 6.64. The IC50 in assay [2] (setting [4]) worked out at 360 nM.

Turning to `Cc1cc(-c2ccc(C(=O)[C@@H]3CCCC[C@H]3C(=O)Nc3c(C(N)=O)n[nH]c3C)cc2)[nH]n1` [Example 22, 5-Methyl-4-[({(1R,2R)-2-[4-(3-methyl-1H-pyrazol-5-yl)benzoyl]-cyclohexyl}carbonyl)amino]-1H-pyrazole-3-carboxamide], the pIC50 in assay [1] was 7.62. In addition, the IC50 in assay [2] (setting [3]) was 740 nM.
